Experimental data taken from patent US7871788B2, “Method of judging grade of malignancy of carcinoma cell using ATBF-1” (priority 2004, dated 2011).
“Also recorded” adds a separate entry of the source.

Experiments:
P19 cells [1] = experiment: Movement of ATBF1 from cytoplasm to nucleus in P19 cells, PI3K family antagonists added; assay type: cell-based, mouse; conditions: P19 cells attached to culture dish, after retinoic acid
Method: The present inventors harvested cells in an undifferentiated proliferation state, to which stimulation had not been particularly applied, when at the starting time of culturing P19 carcinoma cells, and carried out an immunohistochemical staining method (ATBF1 staining using D1-120) by the following procedures. The cells were cultured in a chamber slide and fixed in 4% paraformaldehyde that had been adjusted with PBS, followed by washing. A primary antibody solution obtained by dissolving an anti-ATBF1 antibody in 0.05M Tris buffer solution (pH 7.6, containing 1% solution of bovine serum albumin and sodium azide) so that the concentration of the solution became 5 μg/ml was dropped on a slice to cause reaction at 37° C. for about 30 minutes (primary antibody reaction). […] After sufficiently washing, inclusion was carried, which was observed by using a fluorescence microscope (AX70; Olympus) or a confocal laser scanning microscope (LSM5; ZWISS). […]
From the fact about various factors relating to the cell cycle, which was investigated in the past, the movement of proteins between the nucleus and the cytoplasm is known to relate to phosphorylation of amino acid. In particular, it was determined that, for the movement to the nucleus, phosphorylation and dephosphorylation of nuclear localization signals were important. […]

P19 cells [2] = experiment: Export of ATBF1 from nucleus to cytoplasm in P19 cells, CRM1 inhibitor added; assay type: cell-based, mouse
Method: The present inventors harvested cells in an undifferentiated proliferation state, to which stimulation had not been particularly applied, when at the starting time of culturing P19 carcinoma cells, and carried out an immunohistochemical staining method (ATBF1 staining using D1-120) by the following procedures. The cells were cultured in a chamber slide and fixed in 4% paraformaldehyde that had been adjusted with PBS, followed by washing. A primary antibody solution obtained by dissolving an anti-ATBF1 antibody in 0.05M Tris buffer solution (pH 7.6, containing 1% solution of bovine serum albumin and sodium azide) so that the concentration of the solution became 5 μg/ml was dropped on a slice to cause reaction at 37° C. for about 30 minutes (primary antibody reaction). After sufficiently washing, a secondary antibody Alexa Fluor 594-conjugated goat anti-rabbit IgG (as shown in the below-mentioned Examples, when double staining with other monoclonal antibody is carried out, Alexa Fluor 488-conjugated goat anti-mouse IgG is used simultaneously. Both are products by Molecular Probes.) was allowed to act on a specimen to cause a reaction at room temperature for about one hour (secondary antibody reaction). After sufficiently washing, inclusion was carried, which was observed by using a fluorescence microscope (AX70; Olympus) or a confocal laser scanning microscope (LSM5; ZWISS).
Recently, the fact that transport and export of various factors from the nucleus to the cytoplasm is adjusted with CRM1 (Exportin 1 or chromosome region maintenance 1) has been reported. ATBF1 is assumed to have a target sequence of CRM1, that is, nuclear exporting signals existing in three positions (portions starting from the 1267th, 2471th and 2504th positions in the amino acid sequence, respectively) (see FIG. 3b). […]

T24 = conditions: T24, p53 nonsense mutant; cited from earlier work
RT4 = conditions: cited from earlier work
HT1376 = conditions: HT1376, p53 missense mutant, p21 frame shift mutation; cited from earlier work
[3] = system: NB1 cultured cell line derived from human neuroblastoma; experiment: Western blotting of ATBF1 protein (D1-120) with or without retinoic acid treatment, NB1; assay type: cell-based; conditions: NB1, after retinoic acid treatment 24 hours
Method: In order to confirm the probability that the ATBF1 assumed in 10-2 is cut at some sites and it can function as each fraction of the cell, by using three kinds of cultured cells, that is, the cultured cell lines derived from human neuroblastoma, NB1 and GOTO; a mouse undifferentiated embryonic carcinoma cell line p19 and SDS-PAGE and western blotting using an anti-ATBF1 antibody (D1-120) were carried out. A control group and a nerve cell differentiation inducing group were examined, separately. As to the control group, cells of P19, NB1 and GOTO that have been cultured in a serum-containing culture solution were collected and examined. As to the nerve cell differentiation inducing group, retinoic acid treatment was carried out (P19: four days; NB1 and GOTO: 24 hours). However, a culture method of P19 cells is different from that of the other two cell lines. Firstly, in a state in which cells were allowed to float on a bacterial grade dish for four days, retinoic acid (concentration: […]) treatment was carried out, and then a serum-containing culture solution from which the retinoic acid had removed was prepared and transferred to a usual tissue culture dish. Then, culture was continued for three days. According to this method, P19 cells were differentiated and induced to neuron in which neurite was observed. […]

Cn1c(=O)c2c(ncn2C)n(C)c1=O [caffeine]
movement of ATBF1 into the nucleus (P19 cells [1]): inhibited in almost all of the cultured cells; also recorded: more completely inhibited | proliferation state of cells (P19 cells [1]): completely maintained

CCC(=C/[C@H](C)C/C=C/C(C)=C/[C@@H](C)C(=O)[C@@H](C)[C@H](O)[C@@H](C)C/C(C)=C/C(=O)O)/C=C/[C@@H]1OC(=O)C=C[C@@H]1C [Leptomycin B]
number of cells undergoing apoptosis (P19 cells [2]; P19 cells after retinoic acid on coated dish): clearly increased | intranuclear concentration of ATBF1 (P19 cells [2]; P19 cells after retinoic acid on dish coated with fibronectin and poly-L-ornithine, versus no Leptomycin B): clearly increased | cell death (P19 cells [2]; one more day of culture added, the following day): almost all the cells died

N.N.[Cl][Pt][Cl] [cisplatin]
induction of apoptosis (T24): cannot be induced | introduction of p21 (RT4; RT4, the only one of the three cell lines): can introduce p21 | induction of apoptosis (RT4; RT4, wild-type p21 and p53): can be induced | induction of apoptosis (HT1376): cannot be induced

CC1=C(/C=C/C(C)=C/C=C/C(C)=C/C(=O)O)C(C)(C)CCC1 [retinoic acid]
size of ATBF1 protein mainly observed [3]: 210 kDa
